Publication PMC2697262 (Biochemistry, 2009)

Tests used:
[1] = molecular target: orotidine 5’-monophosphate decarboxylase (MtOMPDC) (Methanothermobacter thermautotrophicus, UniProt O26232); experiment: X-ray crystal structure, […] Å; assay type: biochemical
[2] = molecular target: orotidine 5’-monophosphate decarboxylase (MtOMPDC) (Methanothermobacter thermautotrophicus, UniProt O26232, D70G)
orotidine 5’-monophosphate decarboxylase (MtOMPDC) (Methanothermobacter thermautotrophicus, UniProt O26232, D70G), sequence (O26232 whole entry D70G): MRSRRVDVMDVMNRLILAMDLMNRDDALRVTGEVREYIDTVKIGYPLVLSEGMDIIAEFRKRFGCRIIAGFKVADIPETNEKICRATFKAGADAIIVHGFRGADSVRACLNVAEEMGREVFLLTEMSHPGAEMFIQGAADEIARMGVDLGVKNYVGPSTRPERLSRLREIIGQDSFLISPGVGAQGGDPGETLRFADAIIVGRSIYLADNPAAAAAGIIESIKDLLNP

orotidine 5’-monophosphate decarboxylase (MtOMPDC) (Methanothermobacter thermautotrophicus, UniProt O26232), sequence (O26232 whole entry): as the sequence (O26232 whole entry D70G) above, with G70D counted along it

Compound: O=C1CC(C(=O)O)N([C@@H]2O[C@H](COP(=O)(O)O)[C@@H](O)[C@H]2O)C(=O)N1 (stereo partly drawn) [(6R)-H2OMP]
- Ki [1]: 100 µM

Compound: O=c1[nH]c(=O)n([C@@H]2O[C@H](COP(=O)(O)O)[C@@H](O)[C@H]2O)cc1F [FUMP]
- X-ray crystal structure, 1.3 Å; also H6 exchange by NMR [2]: structures were obtained for D70G in the absence of ligands and complexed with UMP and FUMP
